For data set [1], the system named is PDX from CNS metastasis (spine) of lung adenocarcinoma. Put plainly: Tumor volume of patient-derived xenograft (lung adenocarcinoma spine metastasis) in NSG mice under treatment (FIG. 7, FIG. 8). Format: in vivo. Conditions: for tumor growth (tumor volume) during treatment: PDX in NSG mice, daily oral gavage for 18 days, SAHA 100 mg/kg, PD0325901 20 mg/kg, vs vehicle. The text has this: (§1) Immediately after surgical removal, fresh tissue was collected for heterotopic (flank) injection into NSG mice (NOD scid gamma mice—or mice that are on a NOD/ShiLtJ background with severe combined immune deficiency mutation and the IL2 receptor gamma chain deficiency). Excised patient tissue was placed in a culture dish with medium and minced into small pieces, such that minced tissue suspensions could be drawn through a 16-gauge needle. Minced tissues were placed in a conical tube, media was withdrawn, and matrigel was added to the wet tissue in a 1:1 volume ratio. Approximately 200 μl of the matrigel-tissue mixture was injected subcutaneously into the flanks of two to four mice, and tumors were allowed to develop until the tumors achieved a length of 1.0 to 2.0 cm in the longest dimension. Mice were then sacrificed by CO2 asphyxiation, and their flank tumors were immediately excised. Portions of each excised flank tumor were archived as frozen tissue and as paraffin-embedded tissue following formalin fixation. The remainder of each tumor was dispersed in DMEM, processed as described above and passed by injection into the flank of another NSG mouse.
In view of these changes in the patient's molecular profile, a treatment model was created. […] For example, in view of the G12C mutation in the KRAS gene and the additional amplification this same gene found in the subject's exome, a MEK inhibitor (i.e., a pharmaceutical that targets the mitogen-activated kinase kinase enzymes MEK1 and MEK2) was selected. In this experiment, the MEK inhibitor selected was PD0325901. In addition, the detection of the HDAC9 amplification drove the selection of a drug that has been previously shown efficacy of epigenetic therapy in metastatic lung cancer, suberanilohydroxamic acid or SAHA, which is a potent HDAC inhibitor.
After establishing which treatments were to be used in the case study, 15 animals comprising the PDX were divided into three groups. A first group received vehicle only via intraperitoneal injection each day for 18 days. A second group received SAHA (100 mg/kg) via oral gavage each day for 18 days and a third group received PD0325901 (20 mg/kg) each day for 18 days via oral gavage. Both during and after treatment, tumor volume was measured in each of the mice and the data is plotted in FIG. 7.
Additional experiments were conducted to investigate the potential impact of combination drugs. Referring now to FIG. 8, the drug treatment experiments described above were repeated with an additional pharmaceutical composition, 5-Azacytidine, which is a nucleoside analog that is an FDA-approved treatment for some forms of cancer. […]

The conditions of data set [2]: have been shown; cited from earlier work.
The test system of another data set is ERK phosphorylation. The data set can be described thus: Immunohistochemistry with anti-phosphorylated ERK antibody (FIG. 14). Format: in vivo. On the procedure: FIG. 14 is an immunohistochemistry study of tissue from the patient whose samples were detailed in FIGS. 12 and 13. In this study, an anti-phosphorylated ERK antibody was used to assess ERK phosphorylation in the various treatment conditions.
Sections were mounted onto a glass slide and stained with reagents designed to detect proteins of interest by IHC staining. This allows samples of many or all of the tumor specimens to be stained at one time. IHC staining was performed to determine the presence or absence of specific proteins and was used to validate potential targets discovered by genome-wide experiments (as previously described).
(§2) Referring next to FIGS. 12 and 13, samples from a different patient (i.e., a patient with lung cancer that metastasized to portions the central nervous system) that were analyzed using some aspects of the instant invention. […] As a result of this analysis, it was determined that a MEK inhibitor (e.g., PD0325901) should be employed in the patient-derived xenograft context to assess potential for therapeutic efficacy.

The test system of data set [3] is patient-derived xenograft of lung cancer metastasized to the central nervous system (KRAS mutation). The data set can be described thus: Tumor weight of patient-derived xenograft of lung cancer CNS metastasis (FIG. 13). The class given is in vivo, mice. The following applies: treatment conditions with MEK inhibitor.
From the text: as §1, with “Portions of each excised flank tumor were archived as frozen tissue and as paraffin-embedded tissue following formalin fixation. The remainder of each tumor was dispersed in DMEM, processed as described above and passed by injection into the flank of another NSG mouse.” left out
as §2
(In general: Xenograft models place foreign cells or tissue in a host animal.)

Each structure is given as a SMILES string.

The source of these data is patent US10525148B2, “Systems and methods for preclinical models of metastases” (The Translational Genomics Research Institute, priority 2014, dated 2020).

For `Nc1ncn([C@@H]2O[C@H](CO)[C@@H](O)[C@H]2O)c(=O)n1` [5-Azacytidine], the “tumor volume growth, single agent and combinations with 5-Azacytidine” value in data set [1] (5-Azacytidine 2.0 mg/kg intraperitoneal, combinations compared to SAHA and PD0325901 alone, FIG. 8) was “did not serve as an efficacious treatment”.
On to `O=C(NOC[C@H](O)CO)c1ccc(F)c(F)c1Nc1ccc(I)cc1F` [PD0325901], for which the blood-brain barrier penetration entry in data set [2] is listed as “blood-brain barrier penetrant”. In the data set with ERK phosphorylation (14 days after treatment), the “ERK phosphorylation 14 days after treatment” value was “returned to vehicle-treatment levels”. For the same molecule, in the data set on ERK phosphorylation (compared to vehicle alone), the “ERK phosphorylation in the metastasis cells during treatment” value is “reduced ERK phosphorylation”. The “tumor growth (tumor volume) during treatment” value in data set [1] (FIG. 7) was “little to no tumor growth”. In data set [1] (after day 18, FIG. 7), the “rate of tumor growth after treatment stopped” value was “reduced compared to animals in the SAHA and control groups”. The “gains in tumor weight” value in data set [3] was “most reduced gains in tumor weight”.
With `O=C(CCCCCCC(=O)Nc1ccccc1)NO` [SAHA, suberanilohydroxamic acid], in data set [2], the blood-brain barrier penetration entry is reported as “blood-brain barrier penetrant”. Moreover, the “tumor growth (tumor volume) during treatment” value in data set [1] (FIG. 7) was “reduced tumor growth”.
